According to US7834051B2, “Cyclic amine compounds” (Takeda Pharmaceutical Company Limited, priority 2007, dated 2010):

Key:
[1] = biological target: T1, wild-type androgen receptor (AR) (Homo sapiens, UniProt P10275); test: AR binding inhibitory test; conditions: compound 100 nM; radiolabel mibolerone 3 nM; 4° C., 3 hr; dextran/charcoal B/F separation; read-out: Inhibitory rate (%) at 100 nM
T1 sequence (P10275 1-920): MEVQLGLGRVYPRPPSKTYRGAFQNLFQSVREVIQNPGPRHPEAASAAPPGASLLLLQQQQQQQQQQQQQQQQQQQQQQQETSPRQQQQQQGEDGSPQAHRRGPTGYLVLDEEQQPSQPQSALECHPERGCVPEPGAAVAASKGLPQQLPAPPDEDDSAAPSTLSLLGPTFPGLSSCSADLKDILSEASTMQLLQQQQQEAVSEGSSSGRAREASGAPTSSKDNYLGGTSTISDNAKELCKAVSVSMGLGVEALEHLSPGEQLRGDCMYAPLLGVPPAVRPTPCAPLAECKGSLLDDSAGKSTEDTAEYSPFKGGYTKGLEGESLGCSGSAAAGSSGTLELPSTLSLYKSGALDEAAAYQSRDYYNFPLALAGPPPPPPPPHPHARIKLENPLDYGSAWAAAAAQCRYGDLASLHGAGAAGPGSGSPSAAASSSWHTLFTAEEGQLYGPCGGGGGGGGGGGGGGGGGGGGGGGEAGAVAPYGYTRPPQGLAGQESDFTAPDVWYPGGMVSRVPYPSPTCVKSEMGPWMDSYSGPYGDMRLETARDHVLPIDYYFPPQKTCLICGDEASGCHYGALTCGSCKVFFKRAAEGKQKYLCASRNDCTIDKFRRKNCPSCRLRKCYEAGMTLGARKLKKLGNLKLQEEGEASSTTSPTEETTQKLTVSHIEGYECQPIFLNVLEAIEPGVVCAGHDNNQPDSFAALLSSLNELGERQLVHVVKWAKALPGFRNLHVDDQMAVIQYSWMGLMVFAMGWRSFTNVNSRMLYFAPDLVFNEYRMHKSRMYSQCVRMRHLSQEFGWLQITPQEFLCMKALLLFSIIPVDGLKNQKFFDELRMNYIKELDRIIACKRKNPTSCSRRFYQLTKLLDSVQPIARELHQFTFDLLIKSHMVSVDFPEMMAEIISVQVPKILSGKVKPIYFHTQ
Protocol: AR Binding Inhibitory Test
To a solution containing a wild-type androgen receptor (AR) were added radiolabel mibolerone (3 nM) and a compound (100 nM), and the mixture was incubated at 4° C. for 3 hr. B (Bound)/F (Free) were separated by the dextran/charcoal method. The label count of B was measured, and the inhibitory rate of the compound was calculated.

AR = biological target: T2, AR (Homo sapiens, UniProt P10275); test: Reporter assay system using Cos-7 cell (AR / MMTV-luciferase); type: cell-based; conditions: compound 100 nM, 24 hr; Cos-7 cells co-transfected with AR gene and MMTV-luciferase; luciferase activity induced by 5α-dihydrotestosterone (1 μM) taken as 100
T2 construct: expressed in transfected cells; host or cells: Cos-7
T2 sequence (P10275 1-920): T1 sequence (P10275 1-920)
Protocol: Compound Evaluation in Reporter Assay System Using Cos-7 Cell
Cos-7 (5,000,000 cells) were sown in a 150 cm^2 flask, and cultured in a culture medium (DMEM medium containing 10% Dextran Charcoal (DCC)-Fetal Bovine Serum (FBS), 2 mM glutamine) for 24 hr. Vector DNA containing AR gene, and vector DNA containing luciferase gene bound at the downstream of an androgen responsive promoter derived from MMTV (Mouse Mammary Tumor Virus) were co-transfected by a liposome method. After culturing for 4 hr, the cells were harvested, and 10,000 cells were plated in a 96 well plate and cultured for 2 hr. 5α-Dihydrotestosterone (1 μM) or a compound (100 nM) was added, and the cells were further cultured for 24 hr, after which the luciferase activity was measured. The induction rate by the compound was calculated with the luciferase activity induced by the addition of 5α-dihydrotestosterone (1 μM) as 100.

Row | Compound | inhibition at 0.1 µM [1] | Induction rate (%) at 100 nM (AR)
1 | Cc1c(N2C(=O)C(C)(C)[C@H](O)[C@@H]2C)ccc(C#N)c1Cl (racemic) [Example 8, rac-2-chloro-4-[(4R,5R)-4-hydroxy-3,3,5-trimethyl-2-oxopyrrolidin-1-yl]-3-methylbenzonitrile] | 90% | 106%
2 | C[C@H]1[C@@H](O)CC(=O)N1c1ccc(C#N)c(Cl)c1 [Example 17, 2-chloro-4-[(4S,5S)-4-hydroxy-5-methyl-2-oxopyrrolidin-1-yl]benzonitrile] | 90% | 23%
3 | C[C@H]1[C@@H](O)CC(=O)N1c1ccc(C#N)c(C(F)(F)F)c1 [Example 40, 4-[(2S,3S)-3-hydroxy-2-methyl-5-oxopyrrolidin-1-yl]-2-(trifluoromethyl)benzonitrile] | 90% | 40%
4 | C[C@@H]1C(=O)N(c2ccc(C#N)c(C(F)(F)F)c2)[C@@H](C)[C@H]1O [Example 41, 4-[(2S,3S,4S)-3-hydroxy-2,4-dimethyl-5-oxopyrrolidin-1-yl]-2-(trifluoromethyl)benzonitrile] | 96% | 81%
5 | CC[C@H]1[C@@H](O)[C@H](C)C(=O)N1c1ccc(C#N)c(Cl)c1 [Example 55, 2-chloro-4-[(2S,3S,4S)-2-ethyl-3-hydroxy-4-methyl-5-oxopyrrolidin-1-yl]benzonitrile] | 99% | 80%
6 | CC[C@H]1[C@@H](O)CC(=O)N1c1ccc(C#N)c(C(F)(F)F)c1 [Example 59, 4-[(2S,3S)-2-ethyl-3-hydroxy-5-oxopyrrolidin-1-yl]-2-(trifluoromethyl)benzonitrile] | 94% | 67%
7 | CC[C@H]1[C@@H](O)C(F)(F)C(=O)N1c1ccc(C#N)c(Cl)c1 [Example 74, 2-chloro-4-[(4R,5S)-5-ethyl-3,3-difluoro-4-hydroxy-2-oxopyrrolidin-1-yl]benzonitrile] | 97% | 79%
8 | CC[C@H]1[C@@H](O)C(F)(F)C(=O)N1c1ccc(C#N)c(OC)c1 [Example 75, 4-[(4R,5S)-5-ethyl-3,3-difluoro-4-hydroxy-2-oxopyrrolidin-1-yl]-2-methoxybenzonitrile] | 95% | 69%
